Activity calls are given as the source filed them. No cut-off for these calls is given here.
Legend:
[1] = Lipophilicity, logD of compound in octanol and aqueous buffer at pH 7.4 incubated for 2 hrs by shake-flask method based LC-MS/MS analysis; assay type: physicochemical
[2] = Metabolic stability in human liver microsomes assessed as intrinsic clearance at 1 uM incubated for 30 mins in presence of NADPH by LC-MS/MS analysis; assay type: ADME, Microsome; details: read-out: CLH
[3] = Metabolic stability in rat hepatocytes assessed as intrinsic clearance measured per 10^6 cells at 1 uM incubated for 120 mins by LC-MS/MS analysis; assay type: ADME, cell-based, Hepatocyte; details: read-out: CLH
[4] = Metabolic stability in CD-1 mouse hepatocytes assessed as intrinsic clearance measured per 10^6 cells at 1 uM incubated for 120 mins by LC-MS/MS analysis; assay type: ADME, cell-based, Hepatocyte; details: read-out: CLH
[5] = Duration (time) of SCID mouse free plasma concentration cover over EGFR insSVD cell IC50 at 50 mg/kg, po; assay type: ADME, organism-based; details: in vivo
[6] = Inhibition of EGFR Ex20ins ASV mutant (unknown origin) transfected in human NCI-H2073 cells; assay type: cell-based
[7] = Inhibition of EGFR Ex20ins NPG mutant (unknown origin) transfected in human NCI-H2073 cells; assay type: cell-based
[8] = molecular target: T1, Tyrosine-protein kinase BTK (Homo sapiens, UniProt Q06187); assay: Inhibition of BTK (unknown origin) at 0.1 uM relative to control
T1 sequence (Q06187 whole entry): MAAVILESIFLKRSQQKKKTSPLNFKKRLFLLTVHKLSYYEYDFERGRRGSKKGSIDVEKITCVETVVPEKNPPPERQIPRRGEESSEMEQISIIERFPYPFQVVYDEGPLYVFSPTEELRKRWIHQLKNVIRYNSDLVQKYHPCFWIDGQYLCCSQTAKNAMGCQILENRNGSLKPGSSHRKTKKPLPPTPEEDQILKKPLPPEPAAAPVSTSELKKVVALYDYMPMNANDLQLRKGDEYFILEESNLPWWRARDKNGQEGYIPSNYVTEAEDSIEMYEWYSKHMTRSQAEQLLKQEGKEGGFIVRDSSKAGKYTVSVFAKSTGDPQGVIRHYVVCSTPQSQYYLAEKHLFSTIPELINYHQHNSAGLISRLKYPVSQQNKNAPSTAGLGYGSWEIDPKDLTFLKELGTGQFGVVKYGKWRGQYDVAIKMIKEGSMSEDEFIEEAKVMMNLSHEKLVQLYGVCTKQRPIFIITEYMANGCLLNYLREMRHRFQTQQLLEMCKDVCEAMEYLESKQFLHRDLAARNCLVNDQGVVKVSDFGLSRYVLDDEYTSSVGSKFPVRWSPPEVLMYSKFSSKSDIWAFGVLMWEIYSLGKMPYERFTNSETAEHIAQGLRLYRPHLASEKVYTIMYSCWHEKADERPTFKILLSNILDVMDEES

[9] = molecular target: T2, Receptor tyrosine-protein kinase erbB-4 (Homo sapiens, UniProt Q15303); assay: Inhibition of ERBB4 (unknown origin) at 0.1 uM relative to control
T2 sequence (Q15303 whole entry): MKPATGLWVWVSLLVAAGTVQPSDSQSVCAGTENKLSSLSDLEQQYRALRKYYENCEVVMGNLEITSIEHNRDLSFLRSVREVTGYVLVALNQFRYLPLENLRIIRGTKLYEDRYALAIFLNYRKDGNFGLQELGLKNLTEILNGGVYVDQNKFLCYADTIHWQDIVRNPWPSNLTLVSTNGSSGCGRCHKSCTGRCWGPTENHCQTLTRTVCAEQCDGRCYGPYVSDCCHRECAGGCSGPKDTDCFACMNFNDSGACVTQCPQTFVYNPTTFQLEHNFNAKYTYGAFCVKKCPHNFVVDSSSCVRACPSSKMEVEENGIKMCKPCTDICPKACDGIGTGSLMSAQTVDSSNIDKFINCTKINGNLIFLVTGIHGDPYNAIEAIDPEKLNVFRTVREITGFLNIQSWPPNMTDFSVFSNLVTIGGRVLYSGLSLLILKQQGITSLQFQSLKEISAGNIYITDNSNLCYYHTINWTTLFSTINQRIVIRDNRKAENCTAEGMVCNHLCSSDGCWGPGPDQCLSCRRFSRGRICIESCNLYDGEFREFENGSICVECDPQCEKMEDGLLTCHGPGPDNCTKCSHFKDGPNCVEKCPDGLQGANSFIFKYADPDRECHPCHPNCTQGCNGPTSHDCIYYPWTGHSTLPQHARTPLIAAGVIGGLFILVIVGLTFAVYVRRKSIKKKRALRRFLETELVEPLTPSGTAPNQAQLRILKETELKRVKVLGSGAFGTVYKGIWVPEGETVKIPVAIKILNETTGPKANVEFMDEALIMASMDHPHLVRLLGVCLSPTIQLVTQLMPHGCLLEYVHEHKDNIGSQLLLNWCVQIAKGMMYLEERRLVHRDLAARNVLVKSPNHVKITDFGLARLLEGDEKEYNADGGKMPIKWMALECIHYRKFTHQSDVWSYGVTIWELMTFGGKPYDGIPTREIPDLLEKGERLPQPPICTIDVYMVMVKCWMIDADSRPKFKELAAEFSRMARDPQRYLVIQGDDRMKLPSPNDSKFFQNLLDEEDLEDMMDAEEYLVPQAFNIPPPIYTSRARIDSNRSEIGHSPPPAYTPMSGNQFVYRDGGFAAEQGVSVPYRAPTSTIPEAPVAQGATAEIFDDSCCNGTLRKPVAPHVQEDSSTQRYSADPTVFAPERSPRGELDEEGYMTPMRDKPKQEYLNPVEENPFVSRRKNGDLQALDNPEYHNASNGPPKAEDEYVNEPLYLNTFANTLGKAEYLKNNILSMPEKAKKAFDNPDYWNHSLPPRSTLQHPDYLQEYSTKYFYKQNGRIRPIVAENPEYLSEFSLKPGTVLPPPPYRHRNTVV

[10] = molecular target: TRAF2 and NCK-interacting protein kinase (Homo sapiens) (UniProt Q9UKE5); assay: Inhibition of TNIK (unknown origin) at 0.1 uM relative to control
Sequence of TRAF2 and NCK-interacting protein kinase (Homo sapiens) (Q9UKE5 whole entry, looked up): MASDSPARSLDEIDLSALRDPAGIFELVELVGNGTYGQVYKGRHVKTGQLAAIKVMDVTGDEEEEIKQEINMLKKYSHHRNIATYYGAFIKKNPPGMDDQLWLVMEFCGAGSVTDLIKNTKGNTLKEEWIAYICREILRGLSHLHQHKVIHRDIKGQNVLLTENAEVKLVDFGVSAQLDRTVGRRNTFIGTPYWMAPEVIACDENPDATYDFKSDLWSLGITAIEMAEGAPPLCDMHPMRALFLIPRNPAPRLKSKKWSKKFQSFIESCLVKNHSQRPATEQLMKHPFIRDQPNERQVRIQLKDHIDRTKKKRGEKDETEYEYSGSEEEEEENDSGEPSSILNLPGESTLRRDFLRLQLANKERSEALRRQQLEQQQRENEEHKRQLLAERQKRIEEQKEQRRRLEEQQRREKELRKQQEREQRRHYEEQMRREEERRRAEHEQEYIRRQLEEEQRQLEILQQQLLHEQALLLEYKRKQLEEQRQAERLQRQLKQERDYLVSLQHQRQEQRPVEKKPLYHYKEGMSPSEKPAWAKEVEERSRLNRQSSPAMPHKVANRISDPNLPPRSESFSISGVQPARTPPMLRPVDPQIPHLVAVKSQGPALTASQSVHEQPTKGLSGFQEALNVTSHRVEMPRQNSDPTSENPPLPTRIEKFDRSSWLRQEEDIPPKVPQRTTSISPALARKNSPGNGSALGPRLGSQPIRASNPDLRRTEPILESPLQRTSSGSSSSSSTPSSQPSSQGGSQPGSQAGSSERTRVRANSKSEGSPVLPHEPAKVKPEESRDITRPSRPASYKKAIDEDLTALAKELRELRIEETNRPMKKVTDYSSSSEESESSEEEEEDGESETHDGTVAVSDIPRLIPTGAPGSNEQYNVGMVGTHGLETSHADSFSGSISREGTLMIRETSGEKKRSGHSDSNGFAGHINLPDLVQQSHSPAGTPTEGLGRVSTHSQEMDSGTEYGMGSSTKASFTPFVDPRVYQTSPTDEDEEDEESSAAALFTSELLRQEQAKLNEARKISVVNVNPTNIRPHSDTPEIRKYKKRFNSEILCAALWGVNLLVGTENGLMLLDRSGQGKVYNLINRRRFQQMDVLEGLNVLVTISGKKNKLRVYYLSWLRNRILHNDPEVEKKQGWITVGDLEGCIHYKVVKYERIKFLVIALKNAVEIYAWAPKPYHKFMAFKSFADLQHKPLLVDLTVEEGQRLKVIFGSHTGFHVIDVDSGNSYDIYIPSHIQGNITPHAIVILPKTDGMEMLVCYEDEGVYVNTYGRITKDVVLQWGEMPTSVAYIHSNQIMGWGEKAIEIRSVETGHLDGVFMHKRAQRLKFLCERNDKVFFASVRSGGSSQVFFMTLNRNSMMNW

[11] = molecular target: Misshapen-like kinase 1 (Homo sapiens) (UniProt Q8N4C8); assay: Inhibition of MINK1 (unknown origin) at 0.1 uM relative to control
[12] = molecular target: Tyrosine-protein kinase Blk (Homo sapiens) (UniProt P51451); assay: Inhibition of BLK (unknown origin) at 0.1 uM relative to control
Sequence of Tyrosine-protein kinase Blk (Homo sapiens) (P51451 2-505 limits assumed): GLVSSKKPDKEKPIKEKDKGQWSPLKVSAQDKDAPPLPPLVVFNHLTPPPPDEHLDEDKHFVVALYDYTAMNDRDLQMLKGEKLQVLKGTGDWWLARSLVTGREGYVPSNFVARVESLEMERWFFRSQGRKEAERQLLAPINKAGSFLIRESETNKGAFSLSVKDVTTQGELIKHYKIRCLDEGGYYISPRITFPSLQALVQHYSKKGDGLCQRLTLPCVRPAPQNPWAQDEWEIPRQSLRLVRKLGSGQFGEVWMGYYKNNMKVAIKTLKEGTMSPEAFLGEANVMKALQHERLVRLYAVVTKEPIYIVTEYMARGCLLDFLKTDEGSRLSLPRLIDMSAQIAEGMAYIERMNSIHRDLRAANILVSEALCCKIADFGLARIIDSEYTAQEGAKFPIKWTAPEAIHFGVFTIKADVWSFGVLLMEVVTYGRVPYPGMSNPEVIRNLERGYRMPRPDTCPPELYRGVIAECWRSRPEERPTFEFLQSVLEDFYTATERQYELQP

[13] = molecular target: T1, Tyrosine-protein kinase BTK; assay: Inhibition of BTK (unknown origin)
[14] = molecular target: T2, Receptor tyrosine-protein kinase erbB-4; assay: Inhibition of ERBB4 (unknown origin)
[15] = Antitumor activity against human NCI-H2073 cells harboring EGFR D770_N771insSVD mutant xenografted in female SCID mouse assessed as tumor growth inhibition at 100 mg/kg, po administered once daily for 14 days relative to control; assay type: functional; details: NCI-H2073, 336 h, time 14 day, read-out: TGI
[16] = Toxicity in female SCID mouse xenografted with human NCI-H2073 cells harboring EGFR D770_N771insSVD mutant assessed as body weight loss at 100 mg/kg, po administered once daily for 14 days; assay type: organism-based; details: in vivo, 336 h, time 14 day
[17] = Antitumor activity against human NCI-H2073 cells harboring wildtype EGFR xenografted in female SCID mouse assessed as tumor growth inhibition at 100 mg/kg, po administered once daily for 15 days relative to control; assay type: functional; details: NCI-H2073, 360 h, time 15 day, read-out: TGI
[18] = tested on: Mus musculus; assay: In vivo inhibition of EGFR phosphorylation in female SCID mouse xenografted with NCI-H2073 cells harboring EGFR D770_N771insSVD mutant at 100 mg/kg, po measured after 1 to 6 hrs by immunoblotting analysis; assay type: functional, organism-based; details: time 1-6 hrs
[19] = tested on: MDR1, BCRP; assay: Efflux ratio of apparent permeability across basolateral to apical side over apical to basolateral side in MDCKII-MDR1-BCRP cells at 1 uM incubated for 90 mins; assay type: ADME, cell-based, Canis lupus familiaris; details: dog

Compound: C=CC(=O)N1CC[C@H](n2cc(-c3ccncc3)c(-c3cccc(/C=C/c4ncc(C5CC5)o4)c3)n2)C1
- logD at 2 h [1]: 4.8
- microsomal CLint at 1 µM [2]: 214 µL/min/mg
- hepatocyte CLint at 1 µM [3]: 43 µL/min/1e6 cells
- hepatocyte CLint at 1 µM [4]: 35 µL/min/1e6 cells
- Time [5]: 12 h
- IC50 [6]: 67 nM
- IC50 [7]: 55 nM
- inhibition [8]: 99%
- inhibition [9]: 99%
- inhibition [10]: 57%
- inhibition [11]: 55%
- inhibition [12]: 51%
- IC50 [13]: 10 nM
- IC50 [14]: 9 nM
- inhibition in vivo at 100 mg/kg [15]: 62%
- Activity [16]: < 10%
- inhibition in vivo at 100 mg/kg [17]: 13%
- inhibition [18]: Active

Compound: C=CC(=O)Nc1cc(Nc2nccc(-c3cn(C)c4ccccc34)n2)c(OC)cc1N(C)CCN(C)C [OSIMERTINIB]
- efflux ratio at 1.5 h, 1 µM [19]: 3.2

Source: ChEMBL document CHEMBL5506057, “Discovery and Optimization of Potent, Efficacious and Selective Inhibitors Targeting EGFR Exon20 Insertion Mutations” (J Med Chem, 2024)
